From patent US20200306337A1, “Bioactive Metabolities Encoded by the Human Microbiome Using Primary Sequence Alone” (The Rockefeller University, priority 2017, published 2020)
Non-standard residues stand in square brackets, D forms with d. Residues, ends and D or L forms follow the SMILES beside them. *: point of attachment. Tetradecanoyl(3S-OH) = CCCCCCCCCCC[C@H](O)CC(=O)*

Tests used:
MRSA USA300 = test: Two-dimensional carbenicillin-humimycin A synergy susceptibility assay; format: cell-based, Staphylococcus aureus
Protocol: b) Synergy assays. Synergistic β-lactam-humimycin activities were assessed through a two-dimensional (2D) susceptibility assay. Two fold serial dilutions were carried out as described above. Carbenicillin (a β-lactam antibiotic) was diluted serially from left to right, and humimycin was diluted serially from top to bottom. The highest concentration tested for both antibiotics was 32 μg/mL. Fractional inhibitory concentration (FIC) is defined as the ratio of the apparent synergistic MIC divided by the MIC of the antibiotic measured alone.

MRSA clinical isolates = format: cell-based, S. aureus
Protocol: a) Standard assays. Minimal inhibitory concentration (MIC) assays were performed in duplicate in 96-well microtiter plates based on the protocol recommended by Clinical and Laboratory Standards Institute (CLSI, 2012). DMSO stock solutions of syn-BNPs (12.8 mg/mL) were added to the first well in a row and serially diluted (2 fold per transfer) across the microtiter plate. The last well was reserved for a peptide-free control. Overnight cultures of bacteria were diluted 5,000-fold and 50 μL was used as an inoculum in each well. MIC values were determined by visual inspection after 18 h incubation (37° C., static growth).

Row | Compound | MIC (MRSA USA300; Staphylococcus aureus, carbenicillin alone) [µg/mL] | MIC of carbenicillin in the presence of humimycin A (MRSA USA300; in the presence of 2 μg/mL humimycin A (0.25×MIC)) [µg/mL] | synergy with carbenicillin in inhibiting growth (MRSA USA300; FIC values ≤0.5 defines synergy, n=3) | MICs (MRSA clinical isolates) [µg/mL]
1 | CC1(C)S[C@@H]2[C@H](NC(=O)C(C(=O)O)c3ccccc3)C(=O)N2[C@H]1C(=O)O (stereo partly shown) [carbenicillin] | 32 | 1 |  | 
2 | CCCCCCCCCCC[C@H](O)CC(=O)N[C@@H](Cc1ccc(O)cc1)C(=O)N[C@@H](CO)C(=O)N[C@H](Cc1ccc(O)cc1)C(=O)N[C@@H](Cc1ccccc1)C(=O)N[C@@H](C(=O)N[C@H](C(=O)N[C@H](C(=O)O)C(C)C)C(C)C)[C@H](C)O [Humimycin A] ({Tetradecanoyl(3S-OH)}-YS[dY]F[dT]VV-OH; C-terminus assumed) |  |  | act synergistically | 8 to 128
